# What was measured:
# wildtype human PAI-1 = target: T1, wildtype human PAI-1 (Homo sapiens, UniProt P05121); experiment: PAI-1/uPA assay (residual uPA activity, fluorescent substrate SpectroFluor); assay type: biochemical
# T1 construct: purchased Molecular Innovations Lot# HWT-804
# Method: Principle: The assay is based on using a fluorescent substrate (SpectroFluor) to measure residual uPA following inhibition of uPA by PAI-1. PAI-1 used in the assay is pre-treated in the presence of increasing concentrations of the lead compounds to screen for any inhibitory effects on PAI-1. Method: This assay was performed in 96 well microtiter plates. The concentrations of uPA (8 nM) and PAI-1 (6 nM) used in this assay were carefully optimized when using the fluorescent substrate, SpectroFluor™. Stock solutions (10 mM) of all lead compounds were prepared fresh in DMSO. […] 20 μl of 6 nM wildtype human PAI-1 (Molecular Innovations, Lot# HWT-804) was incubated for 15-20 minutes at room temperature in 96 well microtiter plates either with buffer, (50 mM HEPES, 150 mM NaCl, 0.05% Tween-20, 1% BSA, pH 6.6) or various concentrations (10 nM to 100 μM final concentration) of lead compounds in a total volume of 80 μl. A 20 μl aliquot of 8 nM uPA (HMW) solution in 0.05M Tris Buffered™ saline (TBS), pH 8.4 was added to each well and the mixture incubated for an additional 5 minutes at RT. The proteolytic reaction was initiated by addition of 50 μl of 0.1 mM SpectroFluor (Spectrozyme UK Fluorogenic substrate) to each well. The kinetics of the free chromophore, 7-amino-4-methylcoumarin (AMC) released in the course of peptide cleavage by the protease, uPA, was monitored for 30 minutes at 37° C. on a spectrofluorometric microplate reader with an excitation wavelength of 360 nm and emission wavelength of 440 nm. Kinetic data regarding the rate of substrate cleavage by uPA was acquired with Softmax PrO™ software. The difference between the residual uPA activity in the presence or absence of untreated PAI-1, at the molar ratio used, was considered as the “total” PAI-1 activity (100%). The inhibition of uPA by PAI-1 treated with lead compounds was expressed as a percentage of the initial activity of untreated PAI-1. Controls were performed during each experiment to ensure the nearly complete inhibition of uPA by untreated PAI-1 and also to ensure the absence of any direct effect of the lead compounds on uPA alone or on SpectroFluor.
# K-562 = experiment: NCI anticancer screen, K-562; assay type: cell-based, human; conditions: K-562, Leukemia, 48 h
# HOP-92 = experiment: NCI anticancer screen, HOP-92; assay type: cell-based, human; conditions: HOP-92, Non-Small Cell Lung, 48 h
# NCI-H23 = experiment: NCI anticancer screen, NCI-H23; assay type: cell-based, human; conditions: NCI-H23, Non-Small Cell Lung, 48 h
# NCI-H522 = experiment: NCI anticancer screen, NCI-H522; assay type: cell-based, human; conditions: Homo sapiens; NCI-H522, Non-Small Cell Lung, 48 h
# HCT-116 = experiment: NCI anticancer screen, HCT-116; assay type: cell-based, human; conditions: HCT-116, Colon, 48 h
# KM12 = experiment: NCI anticancer screen, KM12; assay type: cell-based, human; conditions: KM12, Colon, 48 h
# SW-620 = experiment: NCI anticancer screen, SW-620; assay type: cell-based, human; conditions: SW-620, Colon, 48 h
# SNB-75 = experiment: NCI anticancer screen, SNB-75; assay type: cell-based, human; conditions: SNB-75, CNS, 48 h
# U251 = experiment: NCI anticancer screen, U251; assay type: cell-based, human; conditions: U251, CNS, 48 h
# LOX IMVI = experiment: NCI anticancer screen, LOX IMVI; assay type: cell-based, human; conditions: Melanoma, 48 h
# MALME-3M = experiment: NCI anticancer screen, MALME-3M; assay type: cell-based, human; conditions: Melanoma, 48 h
# M14 = experiment: NCI anticancer screen, M14; assay type: cell-based, human; conditions: M14, Melanoma, 48 h
# OVCAR-3 = experiment: NCI anticancer screen, OVCAR-3; assay type: cell-based, human; conditions: OVCAR-3, Ovarian, 48 h
# OVCAR-4 = experiment: NCI anticancer screen, OVCAR-4; assay type: cell-based, human; conditions: OVCAR-4, Ovarian, 48 h
# ACHN = experiment: NCI anticancer screen, ACHN; assay type: cell-based, human; conditions: Renal, 48 h
# CAKI-1 = experiment: NCI anticancer screen, CAKI-1; assay type: cell-based, human; conditions: CAKI-1, Renal, 48 h
# RXF 393 = experiment: NCI anticancer screen, RXF 393; assay type: cell-based, human; conditions: RXF 393, Renal, 48 h
# DU-145 = experiment: NCI anticancer screen, DU-145; assay type: cell-based, human; conditions: DU-145, Prostate, 48 h
# NCI/ADR-RES = experiment: NCI anticancer screen, NCI/ADR-RES; assay type: cell-based, human; conditions: Breast, 48 h
# MDA-MB-231/ATCC = experiment: NCI anticancer screen, MDA-MB-231/ATCC; assay type: cell-based, human; conditions: Breast, 48 h
# HS 578T = experiment: NCI anticancer screen, HS 578T; assay type: cell-based, human; conditions: Breast, 48 h
# BT-549 = experiment: NCI anticancer screen, BT-549; assay type: cell-based, human; conditions: BT-549, Breast, 48 h
# T-47D = experiment: NCI anticancer screen, T-47D; assay type: cell-based, human; conditions: Breast, 48 h
# [1] = Homo sapiens, read-out: LC50 (the source's name)
# T1 sequence (P05121 24-402): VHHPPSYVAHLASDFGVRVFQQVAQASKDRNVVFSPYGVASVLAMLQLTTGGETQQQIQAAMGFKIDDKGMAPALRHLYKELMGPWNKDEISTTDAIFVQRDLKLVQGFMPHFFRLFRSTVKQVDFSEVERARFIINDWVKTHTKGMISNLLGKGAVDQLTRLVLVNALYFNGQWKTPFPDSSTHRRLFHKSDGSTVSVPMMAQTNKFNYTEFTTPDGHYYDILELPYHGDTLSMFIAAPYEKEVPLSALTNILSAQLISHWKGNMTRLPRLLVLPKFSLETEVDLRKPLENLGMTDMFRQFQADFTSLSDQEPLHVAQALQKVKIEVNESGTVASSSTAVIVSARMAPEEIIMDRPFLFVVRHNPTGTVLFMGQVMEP
compound,measurement,setting,value
"CC(C)(C)OC(=O)Nc1ccc(O)c(C(=O)NCCOC(=O)NCCNC(=O)c2cc(OCc3ccccc3)ccc2OCc2ccccc2)c1 [Compound Q012052, 2-[5-(BOC-amino)-2-hydroxybenzoylamino]ethyl 2-[2,5-bis-(benzyl-oxy)benzoylamino]ethylcarbamate]",Percent PAI-1 inhibition,"wildtype human PAI-1; at the concentration given, percent of activity of untreated PAI-1",45
same,Conc. of compound required for PAI-1 inhibition,"wildtype human PAI-1; concentration giving the percent inhibition, 6 nM PAI-1, 8 nM uPA",50 nM
same,GI50,"K-562; Homo sapiens, K562",14 µM
same,GI50,HOP-92; Homo sapiens,83.1 µM
same,GI50,NCI-H23; Homo sapiens,> 100 µM
same,GI50,NCI-H522,49.7 µM
same,GI50,HCT-116; Homo sapiens,> 100 µM
same,GI50,KM12; Homo sapiens,> 100 µM
same,GI50,SW-620; Homo sapiens,> 100 µM
same,GI50,SNB-75; Homo sapiens,68.9 µM
same,GI50,"U251; Homo sapiens, U-251",> 100 µM
same,GI50,LOX IMVI; Homo sapiens,> 100 µM
same,GI50,MALME-3M; Homo sapiens,> 100 µM
same,GI50,M14; Homo sapiens,> 100 µM
same,GI50,OVCAR-3; Homo sapiens,> 100 µM
same,GI50,OVCAR-4; Homo sapiens,29.1 µM
same,GI50,ACHN; Homo sapiens,> 100 µM
same,GI50,CAKI-1; Homo sapiens,98 µM
same,GI50,RXF 393; Homo sapiens,> 100 µM
same,GI50,DU-145; Homo sapiens,> 100 µM
same,GI50,NCI/ADR-RES; Homo sapiens,> 100 µM
same,GI50,MDA-MB-231/ATCC; Homo sapiens,> 100 µM
same,GI50,HS 578T; Homo sapiens,> 100 µM
same,GI50,BT-549; Homo sapiens,80.1 µM
same,GI50,"T-47D; Homo sapiens, T47D",5.05 µM
"COc1cc(CNCC2CCN(C(=O)OC(C)(C)C)CC2)cc(CN2CCN(c3ccccn3)CC2)c1O [Compound Q012132, 2-Methoxy-4-({[(N-t-butyloxycarbonylpiperidin-4-yl)methyl]amino}methyl)-6-[(4-pyridin-2-ylpiperazin-1-yl)methyl]phenol]",Conc. of compound required for PAI-1 inhibition (result in words),wildtype human PAI-1; within the concentration range tested,No inhibition
same,GI50,"K-562; Homo sapiens, K562",5.21 µM
same,CC50,"K-562; Homo sapiens, K562, read-out: LC50 (the source's name)",73.5 µM
same,TGI,K-562,19.6 µM
same,TGI,HOP-92,26.6 µM
same,GI50,HOP-92; Homo sapiens,10.7 µM
same,LC50 (concentration killing 50% of starting cells),HOP-92; Homo sapiens,66.3 µM
same,GI50,NCI-H23; Homo sapiens,29.6 µM
same,CC50,NCI-H23; [1],> 100 µM
same,TGI,NCI-H23,>100 µM
same,TGI,HCT-116,22.6 µM
same,GI50,HCT-116; Homo sapiens,10.8 µM
same,LC50 (50% lethal concentration),HCT-116; Homo sapiens,47.6 µM
same,GI50,KM12; Homo sapiens,31.6 µM
same,CC50,KM12; [1],> 100 µM
same,TGI,KM12,>100 µM
same,GI50,SW-620; Homo sapiens,16.1 µM
same,CC50,SW-620; [1],59.1 µM
same,TGI,SW-620,30.8 µM
same,GI50,SNB-75; Homo sapiens,22.3 µM
same,LC50 (concentration killing 50% of cells),SNB-75; Homo sapiens,> 100 µM
same,TGI,SNB-75,49.8 µM
same,GI50,"U251; Homo sapiens, U-251",15.1 µM
same,CC50,"U251; Homo sapiens, U-251, read-out: LC50 (the source's name)",55.8 µM
same,TGI,U251,29.1 µM
same,GI50,LOX IMVI; Homo sapiens,14.1 µM
same,LC50 (concentration giving 50% net cell kill),LOX IMVI; Homo sapiens,55.1 µM
same,TGI,LOX IMVI,27.9 µM
same,GI50,MALME-3M; Homo sapiens,15.7 µM
same,CC50,MALME-3M; [1],65.5 µM
same,TGI,MALME-3M,32.0 µM
same,GI50,M14; Homo sapiens,5.8 µM
same,CC50,M14; [1],41.9 µM
same,TGI,M14,17.5 µM
same,GI50,OVCAR-3; Homo sapiens,33.1 µM
same,CC50,OVCAR-3; [1],> 100 µM
same,TGI,OVCAR-3,>100 µM
same,GI50,OVCAR-4; Homo sapiens,47.8 µM
same,CC50,OVCAR-4; [1],> 100 µM
same,TGI,OVCAR-4,>100 µM
same,GI50,ACHN; Homo sapiens,21 µM
same,CC50,ACHN; [1],> 100 µM
same,TGI,ACHN,48.5 µM
same,TGI,CAKI-1,51.7 µM
same,GI50,CAKI-1; Homo sapiens,22.8 µM
same,CC50,CAKI-1; [1],> 100 µM
same,GI50,RXF 393; Homo sapiens,13.6 µM
same,CC50,RXF 393; [1],67.2 µM
same,TGI,RXF 393,30.2 µM
same,TGI,DU-145,>100 µM
same,GI50,DU-145; Homo sapiens,38.8 µM
same,CC50,DU-145; [1],> 100 µM
same,TGI,NCI/ADR-RES,79.2 µM
same,GI50,NCI/ADR-RES; Homo sapiens,21.4 µM
same,CC50,NCI/ADR-RES; [1],> 100 µM
same,TGI,MDA-MB-231/ATCC,41.0 µM
same,GI50,MDA-MB-231/ATCC; Homo sapiens,17.8 µM
same,CC50,MDA-MB-231/ATCC; [1],94.3 µM
same,TGI,HS 578T,38.2 µM
same,GI50,HS 578T; Homo sapiens,16.4 µM
same,CC50,HS 578T; [1],88.6 µM
same,TGI,BT-549,28.9 µM
same,GI50,BT-549; Homo sapiens,14.6 µM
same,CC50,BT-549; [1],57.1 µM
same,TGI,T-47D,44.4 µM
same,GI50,"T-47D; Homo sapiens, T47D",16.2 µM
same,CC50,"T-47D; Homo sapiens, T47D, read-out: LC50 (the source's name)",> 100 µM

# — patent US20080280920A1, “Plasminogen Activator Inhibitor-1 Inhibitors” (priority 2005, published 2008)
